Source: the supplement of paper PMC10307832

The cell lines below were run with CC(C)C[C@@H](C(=O)N[C@H](C(=O)OC1CCCC1)c1ccccc1)[C@H](O)C(=O)NO [Tosedostat] + CS(=O)(=O)N1CCN(Cc2cc3nc(-c4cccc5[nH]ncc45)nc(N4CCOCC4)c3s2)CC1 [Pictilisib] (partner 1 µM) (assay: relative viability (nuclei count vs DMSO), 5 days (fraction); higher = more cells survive). Settings: first compound 0.02 µM.
Method in brief: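 After 5 days of treatment, lung cancer cells in 1536-well plates were fixed and stained in a single step (final 0.05% Triton X-100, 1% formaldehyde, 1 ug/ml Hoechst) and their nuclei counted on 4× images. Treatment had been applied by pin tool the day after seeding as one drug alone or as a fixed anchor-drug dose with five library-drug doses (not always all listed) in √10 steps. Relative viability is the nuclei count of treated wells divided by that of vehicle wells, and values are medians of duplicate plates.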
Cell Line HARA has a relative viability of 0.375. Work on HCC-78 yielded a relative viability of 0.202. Cell Line NCI-H647 has a relative viability of 0.563. Cell Line LCLC-97TM1 has a relative viability of 0.177. Cell Line NCI-H2126 has a relative viability of 0.506. A-427 showed a relative viability of 0.736. In the case of NCI-H650, the relative viability was 0.933. RERF-LC-KJ gave a relative viability of 0.463. Work on NCI-H1915 yielded a relative viability of 1.24. With NCI-H661 the relative viability was 0.399. Cell Line NCI-H1975 has a relative viability of 0.28. Work on NCI-H1395 yielded a relative viability of 0.627. Cell Line 201T has a relative viability of 0.669. NCI-H2023 was tested, and the relative viability was 0.247. Cell Line HCC-827 has a relative viability of 1.02.

Same assay, conditions: first compound 0.06325 µM
NCI-H23 gave a relative viability of 0.466. Cell Line Calu-6 has a relative viability of 0.87. For HCC-366, the relative viability was 0.154. In the case of NCI-H1755, the relative viability was 0.489. With NCI-H838 the relative viability was 0.5. Work on LK-2 yielded a relative viability of 0.583. For NCI-H2347, the relative viability was 0.662. In the case of SK-MES-1, the relative viability was 0.317. H3255 gave a relative viability of 0.45. Work on COR-L23 yielded a relative viability of 0.784. With COR-L 105 the relative viability was 0.414. IA-LM was tested, and the relative viability was 0.308. In the case of LU99A, the relative viability was 0.317. In the case of NCI-H2170, the relative viability was 0.33. For NCI-H460, the relative viability was 0.407. With HOP-62 the relative viability was 0.676. HCC-44 gave a relative viability of 0.689. Cell Line A549 has a relative viability of 0.513. In the case of LXF-289, the relative viability was 0.766. Cell Line BEN has a relative viability of 0.622. For HARA, the relative viability was 0.432. With HCC-78 the relative viability was 0.226. In the case of NCI-H647, the relative viability was 0.444. NCI-H2126 was tested, and the relative viability was 0.533. For A-427, the relative viability was 0.643. Work on NCI-H650 yielded a relative viability of 0.736. With RERF-LC-KJ the relative viability was 0.647. Cell Line NCI-H1915 has a relative viability of 0.955. Cell Line NCI-H661 has a relative viability of 0.444. In the case of NCI-H1975, the relative viability was 0.311. With NCI-H1395 the relative viability was 0.799. Work on 201T yielded a relative viability of 0.682. In the case of NCI-H2023, the relative viability was 0.233. HCC-827 was tested, and the relative viability was 0.991.

Same assay, conditions: first compound 0.2 µM
Cell Line NCI-H23 has a relative viability of 0.48. Calu-6 was tested, and the relative viability was 0.778. Work on HCC-366 yielded a relative viability of 0.0818. NCI-H1755 showed a relative viability of 0.38. NCI-H838 showed a relative viability of 0.456. LK-2 showed a relative viability of 0.576. For NCI-H2347, the relative viability was 0.554. Cell Line SK-MES-1 has a relative viability of 0.381. H3255 showed a relative viability of 0.409. With COR-L23 the relative viability was 0.666. With COR-L 105 the relative viability was 0.379. IA-LM gave a relative viability of 0.36. LU99A showed a relative viability of 0.295. NCI-H2170 gave a relative viability of 0.385. For NCI-H460, the relative viability was 0.353. With HOP-62 the relative viability was 0.717. For HCC-44, the relative viability was 0.527. In the case of A549, the relative viability was 0.495. Cell Line LXF-289 has a relative viability of 0.752. For BEN, the relative viability was 0.556. HARA gave a relative viability of 0.314. For HCC-78, the relative viability was 0.212. NCI-H647 was tested, and the relative viability was 0.553. In the case of NCI-H2126, the relative viability was 0.513. With A-427 the relative viability was 0.727. Work on NCI-H650 yielded a relative viability of 0.709. RERF-LC-KJ was tested, and the relative viability was 0.45. For NCI-H1915, the relative viability was 1. In the case of NCI-H661, the relative viability was 0.366. In the case of NCI-H1975, the relative viability was 0.252. In the case of NCI-H1395, the relative viability was 0.601. Work on 201T yielded a relative viability of 0.788. NCI-H2023 showed a relative viability of 0.251. HCC-827 gave a relative viability of 1.3.

Same assay, conditions: first compound 0.6325 µM
NCI-H23 gave a relative viability of 0.451. Calu-6 was tested, and the relative viability was 0.757. With HCC-366 the relative viability was 0.151. NCI-H1755 gave a relative viability of 0.376. For NCI-H838, the relative viability was 0.652. Work on LK-2 yielded a relative viability of 0.606. For NCI-H2347, the relative viability was 0.771. For SK-MES-1, the relative viability was 0.315. H3255 gave a relative viability of 0.42. With COR-L23 the relative viability was 0.649. In the case of COR-L 105, the relative viability was 0.319. For IA-LM, the relative viability was 0.302. Cell Line LU99A has a relative viability of 0.258. NCI-H2170 gave a relative viability of 0.291. Cell Line NCI-H460 has a relative viability of 0.365. Work on HOP-62 yielded a relative viability of 0.487. HCC-44 was tested, and the relative viability was 0.695. In the case of A549, the relative viability was 0.469. LXF-289 was tested, and the relative viability was 0.784. In the case of BEN, the relative viability was 0.752. HARA was tested, and the relative viability was 0.376. HCC-78 gave a relative viability of 0.221. Work on NCI-H647 yielded a relative viability of 0.429. For LCLC-97TM1, the relative viability was 0.147. Cell Line NCI-H2126 has a relative viability of 0.437. A-427 gave a relative viability of 0.662. With NCI-H650 the relative viability was 0.696. Work on RERF-LC-KJ yielded a relative viability of 0.471. Cell Line NCI-H1915 has a relative viability of 0.815. NCI-H661 showed a relative viability of 0.432. For NCI-H1975, the relative viability was 0.25. NCI-H1395 was tested, and the relative viability was 0.606. 201T gave a relative viability of 0.78. NCI-H2023 gave a relative viability of 0.139. HCC-827 showed a relative viability of 0.885.

Same assay, conditions: first compound 2 µM
With NCI-H23 the relative viability was 0.324. Calu-6 was tested, and the relative viability was 0.651. Cell Line HCC-366 has a relative viability of 0.103. NCI-H1755 showed a relative viability of 0.276. For NCI-H838, the relative viability was 0.638. For LK-2, the relative viability was 0.812. NCI-H2347 gave a relative viability of 0.552. With SK-MES-1 the relative viability was 0.311. H3255 was tested, and the relative viability was 0.533. In the case of COR-L23, the relative viability was 0.745. With COR-L 105 the relative viability was 0.356. For IA-LM, the relative viability was 0.403. LU99A showed a relative viability of 0.221. Cell Line NCI-H2170 has a relative viability of 0.289. In the case of NCI-H460, the relative viability was 0.365. In the case of HOP-62, the relative viability was 0.867. Work on HCC-44 yielded a relative viability of 0.378. For A549, the relative viability was 0.521. For LXF-289, the relative viability was 0.676. BEN was tested, and the relative viability was 0.804. HARA was tested, and the relative viability was 0.348. In the case of HCC-78, the relative viability was 0.197. Cell Line NCI-H647 has a relative viability of 0.493. LCLC-97TM1 gave a relative viability of 0.186. In the case of NCI-H2126, the relative viability was 0.472. In the case of A-427, the relative viability was 0.564. NCI-H650 gave a relative viability of 0.578. For RERF-LC-KJ, the relative viability was 0.433. NCI-H1915 was tested, and the relative viability was 0.838. With NCI-H661 the relative viability was 0.301. Work on NCI-H1975 yielded a relative viability of 0.241. NCI-H1395 was tested, and the relative viability was 0.567. With 201T the relative viability was 0.762. With NCI-H2023 the relative viability was 0.198. With HCC-827 the relative viability was 1.09.

These cell lines were tested with CC(C)C[C@@H](C(=O)N[C@H](C(=O)OC1CCCC1)c1ccccc1)[C@H](O)C(=O)NO [Tosedostat] (assay: relative viability (nuclei count vs DMSO), 5 days (fraction); higher = more cells survive). Settings: 0.02 µM.
Method in brief: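 On vehicle-anchored 1536-well plates, lung cancer cell lines held overnight at 37 °C were pinned with five library-drug doses (not always all listed) spaced by √10. With no medium change over 5 days, they were then fixed, permeabilised and Hoechst-stained in one step and imaged at 4×. MetaXpress counted nuclei, and viability is the median across plates of treated-well over vehicle-well nuclei. Acceptance needed control CV below 25% and at least one doubling.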
NCI-H23 was tested, and the relative viability was 1.14. With Calu-6 the relative viability was 1.08.
